Assay results taken from patent publication US9492468B2, “Methods and compositions for treatment of acute heart failure” (PERICOR THERAPEUTICS, INC., priority 2008, dated 2016).
Structures can show the parent of a compound that is named as a salt.

What was measured:
[1] = tested on: dogs with advanced heart failure; experiment: Dose escalation / bolus plus infusion study, hemodynamic and ventriculographic measures; type: in vivo, dog; settings: for Effect on EF (LVEF) / Effect on ESV: dose dependent; for Hemodynamic and ventriculographic benefits after discontinuation: one hour after discontinuation of infusion
Method: Studies were performed in purpose-bred, healthy and conditioned mongrel dogs weighing between 20 and 30 kg. The study was approved by Henry Ford Health System Institutional Animal Care and Use Committee and conformed to the National Institute of Health “Guide and Care for Use of Laboratory Animals” and the “Position of the American Heart Association on Research Animal Use” (Position of the American Heart Association on Research Animal Use. Circulation 1985; 71; 49A-50A).
Chronic LV dysfunction and failure was produced by multiple sequential intracoronary embolizations with polystyrene Latex; coronary microembolizations were performed during cardiac catheterization under general anesthesia and sterile conditions (Sabbah H N, et al. Am J Physiol (1991) 260:H1379-84; Sabbah H N, et al. Circulation (1994) 89:2852-9; Sabbah H N, et al. Am J Cardiol 99:41 A-46A, (2007)). Anesthesia was induced using a combination of intravenous injections of oxymorphone hydrochloride (0.22 mg/kg) and diazepam (0.2-0.6 mg/kg). Plane of anesthesia was maintained throughout the study using 1% to 2% isoflurane. Left and right heart catheterizations were performed via a femoral arteriotomy and venotomy. Coronary microembolizations were discontinued when LV ejection fraction, determined angiographically, was about 25%. A period of 2 weeks was allowed after the last microembolization to ensure that infarctions produced by the last microembolizations have completely healed and heart failure was established before the study is undertaken.
Eight heart failure dogs described in Example 1 were used. Seven of 8 dogs underwent two studies, one with active drug GP-531 tartrate and one with vehicle (placebo) and 1 of 8 dogs underwent only one active drug GP-531 study. The order of active drug and placebo was randomized and performed about one week apart. In 6 of 8 dogs, after baseline hemodynamic, and ventriculographic measurements, vehicle was administered as a continuous intravenous infusion for one hour. At the end of one hour, the active drug GP-531 tartrate was administered in 3 escalating dose of continuous intravenous infusion with each dose maintained for one hour. At the end of the last drug dose, infusion was stopped and a washout period of one hour was instituted. The same infusion rates and times between doses were used when vehicle studies were performed. At the end of each hour, hemodynamic and angiographic measurements were made. Venous blood samples were obtained at baseline and at one hour after each dose. Blood samples (at least 10 mL) were centrifuged at 3000 rpm for 10 minutes and plasma withdrawn and placed in cryostorage tubes and stored upright at −20° C. for future use. In 2 of 8 dogs, active drug was administered as bolus followed by a constant infusion for 3 hours as noted below.
Active drug was used in dog groups as follows:
1. In 3 of 8 dogs, escalating doses of 30, 100 and 300 μg/kg/min GP-531 tartrate were used (Group I)
2. In another 3 of 8 dogs, escalating doses of 3, 10 and 30 μg/kg/min GP-531 tartrate were used (Group II).
3. In 1 of 8 dogs, active drug was administered as 700 μg/kg GP-531 tartrate bolus followed by a constant infusion of 10 μg/kg/min GP-531 tartrate for 3 hours.
4. In another 1 of 8 dogs, two active drug studies were performed. In one study, active drug was administered as 70 μg/kg bolus followed by a constant infusion of 1.0 μg/kg/min for 4 hours and in the second study, active drug was administered as 210 μg/kg bolus followed by a constant infusion of 3.0 μg/kg/min for 4 hours.
Study Primary End-Points were: (1) change in LV ejection fraction determined from ventriculography and (2) change in LV end-systolic and end-diastolic volume determined from ventriculography.
All hemodynamic measurements were made during left and right heart catheterizations in anesthetized dogs at each specified study time point. […]

A1 receptors = molecular target: T1, A1 receptors (Homo sapiens, UniProt P30542); experiment: Ligand status at adenosine A1 receptor; type: binding
T1 sequence (P30542 1-326): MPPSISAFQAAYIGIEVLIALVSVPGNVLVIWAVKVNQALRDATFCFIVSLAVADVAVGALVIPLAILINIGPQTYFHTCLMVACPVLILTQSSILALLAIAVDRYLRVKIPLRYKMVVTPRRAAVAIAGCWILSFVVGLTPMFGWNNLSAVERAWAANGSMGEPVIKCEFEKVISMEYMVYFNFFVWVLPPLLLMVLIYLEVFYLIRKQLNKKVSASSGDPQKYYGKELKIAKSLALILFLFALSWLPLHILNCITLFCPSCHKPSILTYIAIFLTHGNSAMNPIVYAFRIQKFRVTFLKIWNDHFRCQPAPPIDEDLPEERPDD

[2] = Group I HF dogs n=3, iv 30 μg/kg/min, 1 h
[3] = Group I HF dogs n=3, iv 100 μg/kg/min, 1 h
[4] = Group I HF dogs n=3, iv 300 μg/kg/min, 1 h
[5] = Group II HF dogs n=3, iv 3 μg/kg/min, 1 h
[6] = Group II HF dogs n=3, iv 10 μg/kg/min, 1 h
[7] = Group II HF dogs n=3, iv 30 μg/kg/min, 1 h
[8] = 1 HF dog, 210 μg/kg bolus then 3.0 μg/kg/min for 4 h
[9] = 1 HF dog, 210 μg/kg bolus then 3.0 μg/kg/min, end of 4 h
[10] = 1 HF dog, 700 μg/kg bolus then constant infusion 10 m/kg/min (so in the source) for 3 h
[11] = 1 HF dog, 700 μg/kg bolus then constant infusion 10 m/kg/min (so in the source), end of 3 h
[12] = Group I HF dogs n=3, 1 h washout after 30/100/300 μg/kg/min
[13] = Group I HF dogs n=3, escalating 30, 100, 300 μg/kg/min, vs baseline
[14] = Group I HF dogs n=3, escalating 30, 100, 300 μg/kg/min, vs baseline, listed as GP-531 tartrate salt
[15] = Group II HF dogs n=3, 1 h washout after 3/10/30 μg/kg/min
[16] = Group II HF dogs n=3, escalating 3, 10, 30 μg/kg/min, not statistically significant vs baseline
[17] = Group II HF dogs n=3, escalating 3, 10, 30 μg/kg/min, vs baseline

NC(=O)c1ncn(C2OC(CNCc3ccccc3)C(O)C2O)c1N [GP-531, 5-amino-1-β-D-(5-benzylamino-5-deoxy-1-β-D-ribofuranosyl)imidazole-4 carboxamide]
Effect on hemodynamic or ventriculographic measures of LV function ([1]; 1 HF dog, 70 μg/kg bolus then 1.0 μg/kg/min for 4 h): no effects
Cardiac output (CO) [1, 2]: 1.90 ± 0.19 L/min
Heart rate (HR) [1, 2]: 88 ± 9 beats/min
LV end-diastolic pressure (LVEDP) [1, 2]: 11 ± 1 mmHg
LV end-diastolic volume (EDV) [1, 2]: 69 ± 6 mL
LV end-systolic volume (ESV) [1, 2]: 47 ± 4 mL
Mean aortic pressure (mAoP) [1, 2]: 70 ± 2 mmHg
Stroke volume (SV) [1, 2]: 22 ± 2 mL
Systemic vascular resistance (SVR) [1, 2]: 2995 ± 213 dynes-sec-cm^−5
Cardiac output (CO) [1, 3]: 2.06 ± 0.28 L/min
Heart rate (HR) [1, 3]: 90 ± 9 beats/min
LV end-diastolic pressure (LVEDP) [1, 3]: 10 ± 1 mmHg
LV end-diastolic volume (EDV) [1, 3]: 68 ± 4 mL
LV end-systolic volume (ESV) [1, 3]: 45 ± 4 mL
Mean aortic pressure (mAoP) [1, 3]: 69 ± 2 mmHg
Stroke volume (SV) [1, 3]: 23 ± 1 mL
Systemic vascular resistance (SVR) [1, 3]: 2792 ± 360 dynes-sec-cm^−5
Cardiac output (CO) [1, 4]: 2.06 ± 0.22 L/min
Heart rate (HR) [1, 4]: 88 ± 6 beats/min
LV end-diastolic pressure (LVEDP) [1, 4]: 11 ± 1 mmHg
LV end-diastolic volume (EDV) [1, 4]: 68 ± 4 mL
LV end-systolic volume (ESV) [1, 4]: 44 ± 4 mL
Mean aortic pressure (mAoP) [1, 4]: 73 ± 3 mmHg
Stroke volume (SV) [1, 4]: 23 ± 1 mL
Systemic vascular resistance (SVR) [1, 4]: 2886 ± 67 dynes-sec-cm^−5
Cardiac output (CO) [1, 5]: 1.47 ± 0.09 L/min
Heart rate (HR) [1, 5]: 80 ± 2 beats/min
LV end-diastolic pressure (LVEDP) [1, 5]: 12 ± 1 mmHg
LV end-diastolic volume (EDV) [1, 5]: 62 ± 2 mL
LV end-systolic volume (ESV) [1, 5]: 43 ± 2 mL
Mean aortic pressure (mAoP) [1, 5]: 70 ± 3 mmHg
Stroke volume (SV) [1, 5]: 18 ± 1 mL
Systemic vascular resistance (SVR) [1, 5]: 3870 ± 366 dynes-sec-cm^−5
Cardiac output (CO) [1, 6]: 1.45 ± 0.06 L/min
Heart rate (HR) [1, 6]: 82 ± 6 beats/min
LV end-diastolic pressure (LVEDP) [1, 6]: 12 ± 1 mmHg
LV end-diastolic volume (EDV) [1, 6]: 58 ± 4 mL
LV end-systolic volume (ESV) [1, 6]: 39 ± 3 mL
Mean aortic pressure (mAoP) [1, 6]: 65 ± 2 mmHg
Stroke volume (SV) [1, 6]: 19 ± 1 mL
Systemic vascular resistance (SVR) [1, 6]: 3379 ± 26 dynes-sec-cm^−5
Cardiac output (CO) [1, 7]: 1.64 ± 0.06 L/min
Heart rate (HR) [1, 7]: 80 ± 3 beats/min
LV end-diastolic pressure (LVEDP) [1, 7]: 12 ± 2 mmHg
LV end-diastolic volume (EDV) [1, 7]: 57 ± 4 mL
LV end-systolic volume (ESV) [1, 7]: 36 ± 3 mL
Mean aortic pressure (mAoP) [1, 7]: 69 ± 3 mmHg
Stroke volume (SV) [1, 7]: 21 ± 2 mL
Systemic vascular resistance (SVR) [1, 7]: 3388 ± 235 dynes-sec-cm^−5
De-novo ventricular arrhythmias ([1]; HF dogs, iv 3 to 300 μg/kg/min): without triggering de-novo ventricular arrhythmias
Hypotension ([1]; HF dogs, iv 3 to 300 μg/kg/min): without inducing hypotension
Ligand for A1 receptors (A1 receptors): has not been shown to be a ligand

NC(=O)c1ncn(C2OC(CNCc3ccccc3)C(O)C2O)c1N (stereo not shown) [GP-531 tartrate]
Effect on CO [1, 8]: minimal or modest changes
Effect on HR [1, 8]: modest reduction
Effect on LVEDP [1, 8]: modest reduction
Effect on SV [1, 8]: minimal or modest changes
Effect on SVR [1, 8]: minimal or modest changes
Effect on mAoP [1, 8]: modest reduction
Effect on EDV [1, 9]: essentially no change
Increase in EF [1, 9]: 44%
Reduction in ESV [1, 9]: ~20%
Effect on CO [1, 10]: minimal or modest changes
Effect on HR [1, 10]: modest reduction
Effect on LVEDP [1, 10]: substantial drop
Effect on SV [1, 10]: minimal or modest changes
Effect on SVR [1, 10]: minimal or modest changes
Effect on mAoP [1, 10]: modest reduction
Increase in EF [1, 11]: 30%
Reduction in EDV [1, 11]: ~10%
Reduction in ESV [1, 11]: 20%
Cardiac output (CO) [1, 12]: 1.72 ± 0.17 L/min
Heart rate (HR) [1, 12]: 85 ± 7 beats/min
LV end-diastolic pressure (LVEDP) [1, 12]: 13 ± 1 mmHg
LV end-diastolic volume (EDV) [1, 12]: 70 ± 5 mL
LV end-systolic volume (ESV) [1, 12]: 49 ± 4 mL
Mean aortic pressure (mAoP) [1, 12]: 73 ± 6 mmHg
Stroke volume (SV) [1, 12]: 20 ± 2 mL
Systemic vascular resistance (SVR) [1, 12]: 3445 ± 310 dynes-sec-cm^−5
Effect on CO [1, 13]: significant increase
Effect on EDV [1, 13]: modest and not statistically significant effect on reducing
Effect on HR [1, 13]: no effect
Effect on LVEDP [1, 13]: significantly decreased
Effect on SV [1, 13]: significant increase
Effect on SVR [1, 13]: decrease
Effect on mAoP [1, 13]: no effect
Effect on EF (LVEF) [1, 13]: increased
Effect on ESV [1, 13]: significantly decreased
Effect on EF (LVEF) [1, 14]: increase
Effect on ESV [1, 14]: significant decrease
Hemodynamic and ventriculographic benefits after discontinuation ([1]; Group I HF dogs): attenuated but in many instances remained significantly better than baseline values
Cardiac output (CO) [1, 15]: 1.50 ± 0.02 L/min
Heart rate (HR) [1, 15]: 80 ± 5 beats/min
LV end-diastolic pressure (LVEDP) [1, 15]: 12 ± 1 mmHg
LV end-diastolic volume (EDV) [1, 15]: 59 ± 4 mL
LV end-systolic volume (ESV) [1, 15]: 40 ± 2 mL
Mean aortic pressure (mAoP) [1, 15]: 66 ± 3 mmHg
Stroke volume (SV) [1, 15]: 19 ± 2 mL
Systemic vascular resistance (SVR) [1, 15]: 3511 ± 176 dynes-sec-cm^−5
Effect on CO [1, 16]: modestly increased
Effect on SV [1, 16]: modestly increased
Effect on SVR [1, 16]: modestly decreased
Effect on EDV [1, 17]: no effects
Effect on HR [1, 17]: no effect
Effect on LVEDP [1, 17]: significantly decreased
Effect on mAoP [1, 17]: no effect
Effect on EF (LVEF) [1, 17]: increased
Effect on ESV [1, 17]: significantly decreased
Effect on EF (LVEF) ([1]; Group II HF dogs n=3, escalating 3, 10, 30 μg/kg/min, vs baseline, listed as GP-531 tartrate salt): increase
Hemodynamic and ventriculographic benefits after discontinuation ([1]; Group II HF dogs): attenuated but in many instances remained significantly better than baseline values
Adverse positive chronotropic effects ([1]; HF dogs, iv 3 to 300 μg/kg/min): not associated with any adverse positive chronotropic effects
LV systolic function ([1]; HF dogs, iv 3 to 300 μg/kg/min over at least one hour): can improve LV systolic function
Effect on LVEF (FIG. 3) ([1]; bolus injection 700 μg/kg followed by 3 hour constant infusion 10 μg/kg/min): increase
